Experimental data from ChEMBL document CHEMBL1201862, “PubChem BioAssay data set” (2004).
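Cells were grown in 96-well plates and exposed to each compound for 48 hours at five concentrations; endpoints were interpolated linearly between bracketing concentrations, or set to the highest concentration if not reached. The concentration for 50% growth inhibition is given as GI50.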 The source made the active and inactive calls. No stated cut-off is given here; in the data, active = GI50 up to about 1.1 µM and inactive = higher.

Legend:
Experiment in all cases: DTP human tumour cell line panel, 48 h
T47D = tested on: T47D
TK-10 = tested on: TK-10
NCI-H23 = tested on: NCI-H23
SK-OV-3 = tested on: SK-OV-3
SNB-19 = tested on: SNB-19
OVCAR-3 = tested on: OVCAR-3
U-251 = tested on: U-251
RPMI-8226 = tested on: RPMI-8226
MOLT-4 = tested on: MOLT-4
OVCAR-4 = tested on: OVCAR-4
ACHN = tested on: ACHN
KM12 = tested on: KM12
SNB-75 = tested on: SNB-75
SK-MEL-28 = tested on: SK-MEL-28
SF-539 = tested on: SF-539
786-0 = tested on: 786-0
SR = tested on: SR
HCC 2998 = tested on: HCC 2998
MDA-MB-231 = tested on: MDA-MB-231
M14 = tested on: M14

Measured: GI50

CCCC(=O)NC(Nc1cc(C)ccn1)(C(=O)OCC)C(F)(F)F (stereo not given)
inactive: T47D > 100 µM | TK-10 > 100 µM | NCI-H23 > 100 µM | SK-OV-3 > 100 µM | SNB-19 > 100 µM | OVCAR-3 > 100 µM | U-251 > 100 µM | RPMI-8226 > 100 µM | MOLT-4 > 100 µM | OVCAR-4 > 100 µM | ACHN > 100 µM | KM12 > 100 µM | SNB-75 > 100 µM | SK-MEL-28 > 100 µM | SF-539 > 100 µM | 786-0 > 100 µM | SR > 100 µM | HCC 2998 > 100 µM | MDA-MB-231 > 100 µM | M14 > 100 µM

O=c1[nH][nH]c(=O)c2c1ccc1oc3ccccc3c12
inactive: T47D > 100 µM | TK-10 > 100 µM | NCI-H23 > 100 µM | SK-OV-3 > 100 µM | SNB-19 > 100 µM | OVCAR-3 > 100 µM | U-251 > 100 µM | RPMI-8226 > 100 µM | MOLT-4 > 100 µM | OVCAR-4 > 100 µM | ACHN > 100 µM | KM12 > 100 µM | SNB-75 > 100 µM | SK-MEL-28 > 100 µM | SF-539 > 100 µM | 786-0 > 100 µM | SR > 100 µM | HCC 2998 99.3 µM | MDA-MB-231 > 100 µM | M14 > 100 µM

Brc1c(C#CCC(c2ccccc2)(c2ccccc2)c2ccccc2)ccc(C#CCC(c2ccccc2)(c2ccccc2)c2ccccc2)c1Br
inactive: T47D > 100 µM | TK-10 > 100 µM | NCI-H23 > 100 µM | SK-OV-3 > 100 µM | SNB-19 > 100 µM | OVCAR-3 > 100 µM | U-251 > 100 µM | RPMI-8226 > 100 µM | MOLT-4 > 100 µM | OVCAR-4 > 100 µM | ACHN > 100 µM | KM12 > 100 µM | SNB-75 > 100 µM | SK-MEL-28 > 100 µM | SF-539 > 100 µM | 786-0 > 100 µM | SR > 100 µM | HCC 2998 > 100 µM | MDA-MB-231 > 100 µM | M14 > 100 µM
